Experimental data reported in patent US20260209234A1, “SUBSTITUTED DIHYDROPYRROLO[3,4-D]PYRIMIDINE COMPOUNDS AND THEIR USE IN TREATING MEDICAL CONDITIONS” (Karuna Therapeutics, Inc., priority 2022, published 2026).

Columns and labels:
[1] = molecular target: T1, hM4 receptors (Homo sapiens, UniProt P08173); assay: Human M4 PAM pERK assay; format: cell-based; conditions: CHO cells expressing hM4; EC20 of acetylcholine (10 nM final); TR-FRET
T1 construct: expressed in transfected cells; host or cells: CHO cells
T1 sequence (P08173 1-479): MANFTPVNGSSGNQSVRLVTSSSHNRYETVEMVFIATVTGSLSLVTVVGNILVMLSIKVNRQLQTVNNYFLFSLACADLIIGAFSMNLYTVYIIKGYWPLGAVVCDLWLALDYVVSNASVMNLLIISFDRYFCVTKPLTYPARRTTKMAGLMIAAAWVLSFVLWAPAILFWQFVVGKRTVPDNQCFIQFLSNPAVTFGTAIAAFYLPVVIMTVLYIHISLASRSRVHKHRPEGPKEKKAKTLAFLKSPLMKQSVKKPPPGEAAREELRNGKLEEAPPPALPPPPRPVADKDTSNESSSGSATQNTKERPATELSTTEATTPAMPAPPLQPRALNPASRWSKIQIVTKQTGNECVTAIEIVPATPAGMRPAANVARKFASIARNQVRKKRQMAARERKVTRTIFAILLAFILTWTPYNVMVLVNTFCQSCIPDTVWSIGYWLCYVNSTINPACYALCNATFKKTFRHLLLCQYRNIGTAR

[2] = molecular target: T2, human M4 receptor (Homo sapiens, UniProt P08173); assay: M4 GTPγS PAM assay; format: biochemical; conditions: membranes of CHO-K1 cells stably expressing human M4; EC20 acetylcholine 40 nM; 35S-GTP
T2 construct: expressed in transfected cells
T2 sequence (P08173 1-479): T1 sequence (P08173 1-479)
Protocol: The M4 GTPγS PAM method was used. Membranes were prepared for GTPgS binding assays from CHO-K1 cells stably expressing human M4 receptor. Briefly, cells were grown in 5-layer cell culture flasks. Cells were washed with 50 mL of PBS and then dissociated with 0.05% trypsin. Dissociated cells were then collected by centrifugation at 650×g for 8 minutes at 4° C. Pellets were washed again in PBS by centrifugation and resuspended in 30 mL of 20 mM HEPES, 10 mM EDTA, pH 7.4. After sitting on ice for 30 min, membranes were collected by centrifugation at 50000×g for 15′ at 4° C., resuspended in 30 mL of 20 mM HEPES, 0.1 mM EDTA, pH 7.4 and collected again by centrifugation. Pellets were then washed twice by centrifugation in 30 mL of 20 mM HEPES, pH 7.4, and stored at −80° C. until the day of the assay. On the day of the assay, pellets were thawed on ice and resuspended in 1 mL of 20 mM HEPES, pH 7.4, 10 mM MgCl2, 100 mM NaCl using dounce homogenization. Membrane protein concentration is determined by BCA protein assay (Promega, Madison, WI) according to Promega guidelines.
On the day of the assay, serial dilutions of test PAM compounds were brought up in assay buffer (20 mM HEPES, 10 mM MgCl2, 100 mM NaCl) at 4× final assay concentration. […] of membrane homogenates (containing […] of membrane protein) were prepared in assay buffer supplemented with GDP at 4× final assay concentration (final assay concentration of GDP is 5 μM for M2 and 0.1 μM for M4) and dispensed into 96 well polypropylene, U-bottom Greiner plates. […] of vehicle or test PAM compound at 4× of final assay concentration diluted in the assay buffer were added to membrane and plates are incubated for 10-15 minutes at room temperature with gentle shaking. Then, […] of EC20 acetylcholine in assay buffer at 4× final assay concentration was added to assay plates (EC20 final assay concentrations was 40 nM for human M4).
Plates were then incubated, with shaking, for an additional 10-15 minutes. […] of 0.4 nM 35S-GTP (Perkin Elmer, Waltham, MA) in assay buffer was added to assay mixtures. The binding reaction is left on the shaker for 1 hour at room temperature. Membranes in assay reactions were then transferred to GF/C filter plates (Unifilter, Perkin Elmer) and washed three times using a FilterMate Harvester (Perkin Elmer) with cold assay buffer containing no GDP. Filter plates were then dried at 40° C. overnight followed by the addition of […] of Beta Plate Scintillation liquid. Plates are top and bottom sealed before being read on TopCount scintillation counter (Perkin Elmer, Waltham, MA).

[3] = molecular target: T3, rM4 receptors (Rattus norvegicus, UniProt P08485); assay: Rat M4 PAM pERK assay; format: cell-based; conditions: CHO cells expressing rM4; EC20 of acetylcholine (10 nM final); TR-FRET
T3 construct: expressed in transfected cells; host or cells: CHO cells
T3 sequence (P08485 1-478): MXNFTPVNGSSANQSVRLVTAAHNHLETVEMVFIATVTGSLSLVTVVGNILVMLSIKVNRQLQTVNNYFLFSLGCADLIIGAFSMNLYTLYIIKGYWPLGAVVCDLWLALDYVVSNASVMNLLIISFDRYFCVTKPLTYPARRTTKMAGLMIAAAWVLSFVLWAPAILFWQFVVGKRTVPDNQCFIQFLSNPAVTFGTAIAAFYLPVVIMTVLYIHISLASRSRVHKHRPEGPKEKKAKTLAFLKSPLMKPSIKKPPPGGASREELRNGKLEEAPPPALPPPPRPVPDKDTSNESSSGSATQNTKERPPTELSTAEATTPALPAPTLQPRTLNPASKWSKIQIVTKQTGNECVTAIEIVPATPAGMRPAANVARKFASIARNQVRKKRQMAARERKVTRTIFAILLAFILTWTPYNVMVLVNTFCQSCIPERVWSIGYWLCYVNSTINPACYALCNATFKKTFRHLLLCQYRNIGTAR

EC50 [1] | EC50 [2] | EC50 [3] | Compound
100 to 500 nM | 100 to 500 nM | 500 to 2000 nM | COc1nc(C#N)nc2c1C(C)N(C(=O)CC1CN(c3ccncc3F)C1)C2 (single isomer, unassigned) [Compound I-29, 6-(2-(1-(3-Fluoropyridin-4-yl)azetidin-3-yl)acetyl)-4-methoxy-5-methyl-6,7-dihydro-5H-pyrrolo[3,4-d]pyrimidine-2-carbonitrile]
≤ 100 nM | 100 to 500 nM | 100 to 500 nM | COc1nc(C#N)nc2c1C(C)N(C(=O)CC1CN(c3ccnc(C(C)(C)O)c3)C1)C2 (single isomer, unassigned) [Compound I-30, 6-(2-(1-(2-(2-Hydroxypropan-2-yl)pyridin-4-yl)azetidin-3-yl)acetyl)-4-methoxy-5-methyl-6,7-dihydro-5H-pyrrolo[3,4-d]pyrimidine-2-carbonitrile]
≥ 2000 nM | ≥ 2000 nM | ≥ 2000 nM | COc1nc(C#N)nc2c1C(C)N(C(=O)CC1CN(c3ccc(C4CC4)nc3)C1)C2 (single isomer, unassigned) [Compound I-32, 6-(2-(1-(6-Cyclopropylpyridin-3-yl)azetidin-3-yl)acetyl)-4-methoxy-5-methyl-6,7-dihydro-5H-pyrrolo[3,4-d]pyrimidine-2-carbonitrile]
≤ 100 nM | 100 to 500 nM | 100 to 500 nM | COc1nc(C#N)nc2c1C(C)N(C(=O)CC1CN(c3ccc(C4CC4)nc3)C1)C2 (single isomer, unassigned) [Compound I-33, 6-(2-(1-(6-Cyclopropylpyridin-3-yl)azetidin-3-yl)acetyl)-4-methoxy-5-methyl-6,7-dihydro-5H-pyrrolo[3,4-d]pyrimidine-2-carbonitrile]
500 to 2000 nM | 500 to 2000 nM | ≥ 2000 nM | COc1nc(C#N)nc2c1CN(C(=O)CC1CN(c3ccnc(C(F)(F)F)c3)C1)C2C (single isomer, unassigned) [Compound I-34, 4-Methoxy-7-methyl-6-(2-(1-(2-(trifluoromethyl)pyridin-4-yl)azetidin-3-yl)acetyl)-6,7-dihydro-5H-pyrrolo[3,4-d]pyrimidine-2-carbonitrile]
100 to 500 nM | ≥ 2000 nM | 500 to 2000 nM | COc1nc(C#N)nc2c1CN(C(=O)CC1CN(c3ccnc(C(F)(F)F)c3)C1)C2C (single isomer, unassigned) [Compound I-35, 4-Methoxy-7-methyl-6-(2-(1-(2-(trifluoromethyl)pyridin-4-yl)azetidin-3-yl)acetyl)-6,7-dihydro-5H-pyrrolo[3,4-d]pyrimidine-2-carbonitrile]
≤ 100 nM | ≤ 100 nM | ≤ 100 nM | COc1nc(C#N)nc2c1C(C)N(C(=O)CC1CN(c3ccnc(C(F)(F)F)c3)C1C)C2 (single isomer, unassigned) [Compound I-36, 4-Methoxy-5-methyl-6-(2-(2-methyl-1-(2-(trifluoromethyl)pyridin-4-yl)azetidin-3-yl)acetyl)-6,7-dihydro-5H-pyrrolo[3,4-d]pyrimidine-2-carbonitrile]
≤ 100 nM | ≤ 100 nM | 100 to 500 nM | COc1nc(C#N)nc2c1C(C)N(C(=O)CC1CN(c3ccnc(C(F)(F)F)c3)C1C)C2 (single isomer, unassigned) [Compound I-37, 4-Methoxy-5-methyl-6-(2-(2-methyl-1-(2-(trifluoromethyl)pyridin-4-yl)azetidin-3-yl)acetyl)-6,7-dihydro-5H-pyrrolo[3,4-d]pyrimidine-2-carbonitrile]
100 to 500 nM | 500 to 2000 nM | 500 to 2000 nM | COc1nc(C#N)nc2c1C(C)N(C(=O)CC1CN(c3ccnc(C(F)(F)F)c3)C1C)C2 (single isomer, unassigned) [Compound I-38, 4-Methoxy-5-methyl-6-(2-(2-methyl-1-(2-(trifluoromethyl)pyridin-4-yl)azetidin-3-yl)acetyl)-6,7-dihydro-5H-pyrrolo[3,4-d]pyrimidine-2-carbonitrile]
